# Patent US10441608B2, “Continuous methods for treating liquids and manufacturing certain constituents (e.g., nanoparticles) in liquids, apparatuses and nanoparticles and nanoparticle/liquid solution(s) resulting therefrom” (Clene Nanomedicine, Inc., priority 2009, dated 2019)
# Values joined by “and” are separate entries in the source; they are usually repeats but may differ in a detail not shown here. Identical values can stand only once. Like-named read-outs stand apart in the source and are kept apart here.
# Key:
# Assay type in all cases: cell-based
# [1] = system: a variety of fungi; experiment: Broth microdilution MIC/MID 50 against fungi; settings: antifungal concentration
# Description: The clinical and laboratory standards institute Broth Microdilution Methodology was employed, however, the growth medium used was an “RPMI” medium. Table 22c uses a format similar to that used for Table 22a, however, the test solutions were tested against a variety of fungi.
# [2] = system: Trypanosoma b. rhodesiense STIB 900; experiment: Alamar Blue assay against Human African Trypanosomiasis parasites
# Description: Minimum Essential Medium (50 μl) supplemented according to Baltz et al. (1985) with 2-mercaptoethanol and 15% heat-inactivated horse serum was added to each well of a 96-well microtiter plate.
# Serial drug dilutions were prepared covering a range from 90 to 0.123 μg/ml.
# Then 10^4 bloodstream forms of Trypanosoma b. rhodesiense STIB 900 in 50 μl were added to each well and the plate incubated at 37° C. under a 5% CO2 atmosphere for 72 hours.
# 10 μl of Alamar Blue (12.5 mg resazurin dissolved in 100 mL distilled water) were then added to each well and incubation continued for a further 2-4 hours.
# Then the plates were read with a Spectramax Gemini XS microplate fluorometer (Molecular Devices Cooperation, Sunnyvale, Calif., USA) using an excitation wave length of 536 nm and an emission wave length of 588 nm.
# Data were analysed using the software Softmax Pro (Molecular Devices Cooperation, Sunnyvale, Calif., USA). Decrease of fluorescence (=inhibition) was expressed as percentage of the fluorescence of control cultures and plotted against the drug concentrations.
# From the sigmoidal inhibition curves the IC50 values were calculated.
# [3] = system: Gram-Positive and Gram Negative bacteria
smiles,measurement,setting,value
C[C@@H]1[C@H](O)[C@@H](C)/C=C/C=C/C=C/C=C/C=C/C=C/C=C/[C@H](O[C@@H]2O[C@H](C)[C@@H](O)[C@H](N)[C@@H]2O)C[C@@H]2O[C@](O)(C[C@@H](O)C[C@@H](O)[C@H](O)CC[C@@H](O)C[C@@H](O)CC(=O)O[C@H]1C)C[C@H](O)[C@H]2C(=O)O [Amphotericin B],MID/MIC,[1]; ATCC 22019 Candida parapsilosis - 24 hrs,0.5 µg/mL
same,MID/MIC,[1]; ATCC 22019 Candida parapsilosis - 48 hrs §§ (24 hour read),1 µg/mL
same,MID/MIC,[1]; NCPF 118 Trichophyton rubrum 48 hrs §§ (24 hour read),0.5 µg/mL and 1 µg/mL
same,MID/MIC,[1]; NCPF 175 Trychophyton interdigitale 72 hrs §§ (24 hour read),2 µg/mL
same,MID/MIC,[1]; NCPF 177 *Microsporum canis - 72 hrs }} (required 72 hours incubation),0.12 µg/mL
same,MID/MIC,[1]; NCPF 224 Trichophyton mentagrophytes - 48 hrs §§ (24 hour read),2 µg/mL
same,MID/MIC,[1]; NCPF 436 *Microsporum audounii - 72 hrs }} (required 72 hours incubation),0.5 µg/mL
same,MID/MIC,[1]; NCPF 988 *Microsporum ferrugineum - 72 hrs }} (required 72 hours incubation),1 µg/mL
same,MID/MIC,[1]; NCPF 2140 Aspergiflus fumigatus - 48 hrs §§ (24 hour read),2 µg/mL
same,MID/MIC,[1]; NCPF 2175 Aspergillus flavus - 48 hrs §§ (24 hour read),4 µg/mL
same,MID/MIC,[1]; NCPF 2634 Rhizopus oligosporus - 24 hrs,0.5 µg/mL
same,MID/MIC,[1]; NCPF 2715 Penicillium chrysogenum 48 hrs §§ (24 hour read),2 µg/mL
same,MID/MIC,[1]; NCPF 2722 Fusarium oxysporum - 48 hrs,1 µg/mL
same,MID/MIC,[1]; NCPF 2743 Mucor circinelloides - 48 hrs,1 µg/mL
same,MID/MIC,[1]; NCPF 3309 Candida glabrata - 24 hrs,0.5 µg/mL
same,MID/MIC,[1]; NCPF 3309 Candida glabrata - 48 hrs,1 µg/mL
same,MID/MIC,[1]; NCPF 3516 Candida lusitaniae - 24 hrs,0.5 µg/mL
same,MID/MIC,[1]; NCPF 3516 Candida lusitaniae - 48 hrs §§ (24 hour read),1 µg/mL
same,MID/MIC,[1]; NCPF 3853 Trichophyton cutaneum 48 hrs §§ (24 hour read),0.5 µg/mL
same,MID/MIC,[1]; NCPF 5011 Epidermophyton floccosum - 48 hrs,0.25 µg/mL
same,MID/MIC,[1]; NCPF 7075 *Sporothrix schenkii - 72 hrs (required 72 hours incubation),1 µg/mL
same,MID/MIC,[1]; NCPF 7147 Alternaria altemata - 48 hrs §§ (24 hour read),1 µg/mL
same,MID/MIC,[1]; NIH 2624 Aspergillus terreus - 48 hrs §§ (24 hour read),2 µg/mL
Nc1nc(N)nc(Nc2ccc([As]3SCC(CO)S3)cc2)n1 (stereo not shown) [Melarsoprol],IC50,"[2]; 72 h, read-out: T.b. rhod. IC/50 Trial I",0.003 µg/mL
same,IC50,"[2]; 72 h, read-out: T.b. rhod. IC/50 Trial III",0.002 µg/mL
same,IC50,"[2]; 72 h, read-out: T.b. rhod. IC/50 Trial V",0.005 µg/mL
same,IC50,[2]; read-out: T.b. rhod. IC/50 Avg less 1 ng/ml,0.00333 µg/mL
CCC[C@@H]1C[C@@H](C(=O)N[C@@H]([C@H]2O[C@H](SC)[C@H](O)[C@@H](O)[C@H]2O)[C@H](C)Cl)N(C)C1 [Clindamycin],MID/MIC (amount of antibiotic),[3],≤0.06 µg/mL
same,MID/MIC (amount of antibiotic),"[3]; CD01 Clostridium difficile, Brucella broth with 5% LHB, 1 μg/mL Vit K, 1 μg/mL Haemin",4 µg/mL
same,MID/MIC (amount of antibiotic),"[3]; CD02 Clostridium difficile, Brucella broth with 5% LHB, 1 μg/mL Vit K, 1 μg/mL Haemin",2 µg/mL
same,MID/MIC (amount of antibiotic),"[3]; CD03 Clostridium difficile, Brucella broth with 5% LHB, 1 μg/mL Vit K, 1 μg/mL Haemin",2 µg/mL and 1 µg/mL
same,MID/MIC (amount of antibiotic),"[3]; CD04 Clostridium difficile, Brucella broth with 5% LHB, 1 μg/mL Vit K, 1 μg/mL Haemin",1 µg/mL
same,MID/MIC (amount of antibiotic),"[3]; CD05 Clostridium difficile, Brucella broth with 5% LHB, 1 μg/mL Vit K, 1 μg/mL Haemin",1 µg/mL
same,MID/MIC (amount of antibiotic),"[3]; CD06 Clostridium difficile, Brucella broth with 5% LHB, 1 μg/mL Vit K, 1 μg/mL Haemin",1 µg/mL
same,MID/MIC (amount of antibiotic),"[3]; CD07 Clostridium difficile, Brucella broth with 5% LHB, 1 μg/mL Vit K, 1 μg/mL Haemin",1 µg/mL
same,MID/MIC (amount of antibiotic),"[3]; CD08 Clostridium difficile, Brucella broth with 5% LHB, 1 μg/mL Vit K, 1 μg/mL Haemin",0.5 µg/mL and 1 µg/mL
same,MID/MIC (amount of antibiotic),"[3]; CD09 Clostridium difficile, Brucella broth with 5% LHB, 1 μg/mL Vit K, 1 μg/mL Haemin",1 µg/mL and 2 µg/mL
same,MID/MIC (amount of antibiotic),"[3]; GN10 Pseudomonas aeruginosa ATCC27853, antibiotic-susceptible type strain",1 µg/mL
same,MID/MIC (amount of antibiotic),"[3]; GN32 Acinetobacter baumanii, multi-drug resistant clinical isolate",50.06 µg/mL
same,MID/MIC (amount of antibiotic),"[3]; P8119035 Citrobacter freundii, resistant clinical isolate",4 µg/mL
